The target of experiment [1] is PRMT5/MEP50 protein complex (Homo sapiens (Human), UniProt O14744). In words: PRMT5 biochemical assay (3H-SAM methylation of H4(1-21) peptide, filter plate scintillation counting). The note with it: PRMT5 enzyme inhibition; 10 nM PRMT5/MEP50 complex, 200 nM H4(1-21) peptide, 1 uM SAM, 25 minute incubation at room temperature. The method in brief: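 Flag-PRMT5/MEP50 was co-expressed in Sf21 cells and Flag-affinity purified. Reactions used 10 nM complex, 200 nM H4(1-21) peptide and 1 uM 3H-SAM (final) in 50 mM Tris pH 8.5, 50 mM NaCl, 5 mM MgCl2, 1 mM EDTA and 1 mM TCEP, run 25 min at room temperature. Reactions were TCA-stopped, filter-captured and scintillation-counted; IC50 came from a 4-parameter fit.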
Sequence of PRMT5/MEP50 protein complex (O14744 other isoform, or with tags, fused parts or gaps): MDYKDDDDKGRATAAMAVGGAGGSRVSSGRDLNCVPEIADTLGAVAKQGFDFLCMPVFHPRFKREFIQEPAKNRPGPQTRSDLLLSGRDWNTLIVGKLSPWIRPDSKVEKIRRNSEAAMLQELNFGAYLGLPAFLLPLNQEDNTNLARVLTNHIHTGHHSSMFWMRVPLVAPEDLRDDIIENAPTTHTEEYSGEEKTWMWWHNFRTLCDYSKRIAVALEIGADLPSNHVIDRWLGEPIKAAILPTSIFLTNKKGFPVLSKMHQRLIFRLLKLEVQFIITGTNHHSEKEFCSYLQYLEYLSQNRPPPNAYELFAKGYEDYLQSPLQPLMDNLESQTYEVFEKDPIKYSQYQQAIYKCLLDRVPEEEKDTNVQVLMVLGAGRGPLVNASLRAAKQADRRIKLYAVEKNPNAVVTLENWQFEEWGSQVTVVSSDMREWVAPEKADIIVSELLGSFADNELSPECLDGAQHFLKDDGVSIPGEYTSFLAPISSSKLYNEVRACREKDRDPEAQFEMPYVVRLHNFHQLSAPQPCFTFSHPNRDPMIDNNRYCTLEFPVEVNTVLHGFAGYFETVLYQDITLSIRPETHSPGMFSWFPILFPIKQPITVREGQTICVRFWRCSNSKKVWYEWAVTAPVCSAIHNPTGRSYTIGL
Sequence of PRMT5/MEP50 protein complex (Q9BQA1 whole entry partner): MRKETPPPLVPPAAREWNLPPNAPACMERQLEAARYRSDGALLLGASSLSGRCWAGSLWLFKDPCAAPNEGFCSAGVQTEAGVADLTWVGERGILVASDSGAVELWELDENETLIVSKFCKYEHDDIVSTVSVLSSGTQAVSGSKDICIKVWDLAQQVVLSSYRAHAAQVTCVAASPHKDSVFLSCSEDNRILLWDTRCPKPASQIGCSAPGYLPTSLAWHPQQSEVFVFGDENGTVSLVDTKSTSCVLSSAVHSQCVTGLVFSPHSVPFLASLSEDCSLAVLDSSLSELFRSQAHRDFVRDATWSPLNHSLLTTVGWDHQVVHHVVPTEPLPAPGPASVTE

In experiment [2] the test system is A549 lung adenocarcinoma cells. In words: A549 proliferation assay (Cell Titer Glo, 7 days). In kind it is cell-based. The note with it: Homo sapiens, 168 h, 7 days with compound, cell viability by Cell Titer Glo (ATP). As to the method:
A549 lung adenocarcinoma cells (American Type CuIture Collection) were maintained in DMEM growth media (Life Technologies) supplemented with 10% v/v heat inactivated fetal bovine serum (Sigma) and cultured at 37° C., 5% CO2. Exponentially growing A549 cells were plated in 96-well black tissue culture treated plates (Corning) at a density of 2500 cells/ml in a volume of 100 μl culture media and allowed to adhere overnight at 37° C., 5% CO2. The following day, compound plates were prepared by making nine-point 3.3-fold dilutions in DMSO with a top concentration of 10 mM. Compounds were further diluted in culture media and 11 μl was added to the cells (final top assay concentration was 10 μM and DMSO was […]). Cells were incubated with compound at 37° C., 5% CO2 for 7 days with media and compound replacement on day 4. Cell viability was assayed on Day 7 by adding 100 μl Cell Titer Glo (Promega) reagent to the plate to measure the amount of ATP present in the cells. Luminescence was read using the Envision 2104 Multilabel Reader (Perkin Elmer).
Results for the A549 proliferation assay of examples are summarized in Table 2, shown as IC50 values in μM.

In general, IC50 refers to the midpoint of a concentration-inhibition curve. As to `Cc1ncnc2c1ccn2[C@@H]1O[C@H]([C@H](O)c2ccc(F)c(C#N)c2)[C@@H](O)[C@H]1O` [Example 13], the IC50 came to 4 nM in experiment [1] and 112 nM in experiment [2].

On to `Cc1ncnc2c1ccn2[C@@H]1O[C@H]([C@H](O)c2ccccc2)[C@@H](O)[C@H]1O` [Example 26, (2R,3S,4R,5R)-2-((R)-hydroxy(phenyl)methyl)-5-(4-methyl-7H-pyrrolo[2,3-d]pyrimidin-7-yl)tetrahydrofuran-3,4-diol], for which the IC50 in experiment [1] came out at 18 nM; in experiment [2], 211 nM.

With `Cc1ncnc2c1ccn2[C@@H]1O[C@H]([C@@H](O)c2ccccc2)[C@@H](O)[C@H]1O` [Example 27, (2R,3S,4R,5R)-2-((S)-hydroxy(phenyl)methyl)-5-(4-methyl-7H-pyrrolo[2,3-d]pyrimidin-7-yl)tetrahydrofuran-3,4-diol], the IC50 in experiment [1] was determined as 5170 nM; in experiment [2], 8700 nM.

Turning to `Cc1ncnc2c1ccn2[C@@H]1O[C@H]([C@H](O)c2cccc(Cl)c2)[C@@H](O)[C@H]1O` [Example 32, (2R,3S,4R,5R)-2-((R)-(3-chlorophenyl)(hydroxy)methyl)-5-(4-methyl-7H-pyrrolo[2,3-d]pyrimidin-7-yl)tetrahydrofuran-3,4-diol], the IC50 is 5 nM in experiment [1] and 25 nM in experiment [2].

On to `Cc1ncnc2c1ccn2[C@@H]1O[C@H]([C@@H](O)c2cccc(Cl)c2)[C@@H](O)[C@H]1O` [Example 33, (2R,3S,4R,5R)-2-((S)-(3-chlorophenyl)(hydroxy)methyl)-5-(4-methyl-7H-pyrrolo[2,3-d]pyrimidin-7-yl)tetrahydrofuran-3,4-diol], for which the concentration for half-maximal inhibition (IC50) in experiment [1] came to 2640 nM; in experiment [2], 4400 nM.

As to `Cc1ncnc2c1ccn2[C@@H]1O[C@H]([C@H](O)c2cccc(F)c2)[C@@H](O)[C@H]1O` [Example 34, (2R,3S,4R,5R)-2-((R)-(3-fluorophenyl)(hydroxy)methyl)-5-(4-methyl-7H-pyrrolo[2,3-d]pyrimidin-7-yl)tetrahydrofuran-3,4-diol], the IC50 was found to be 6 nM in experiment [1] and 26 nM in experiment [2].

On to `Cc1ncnc2c1ccn2[C@@H]1O[C@H]([C@H](O)c2cc(F)cc(F)c2)[C@@H](O)[C@H]1O` [Example 36, (2R,3S,4R,5R)-2-((R)-(3,5-difluorophenyl)(hydroxy)methyl)-5-(4-methyl-7H-pyrrolo[2,3-d]pyrimidin-7-yl)tetrahydrofuran-3,4-diol], for which the IC50 in experiment [1] stood at 6 nM; in experiment [2] it was 44 nM.

Turning to `Cc1ncnc2c1ccn2[C@@H]1O[C@H]([C@@H](O)c2cc(F)cc(F)c2)[C@@H](O)[C@H]1O` [Example 37, (2R,3S,4R,5R)-2-((S)-(3,5-difluorophenyl)(hydroxy)methyl)-5-(4-methyl-7H-pyrrolo[2,3-d]pyrimidin-7-yl)tetrahydrofuran-3,4-diol], the IC50 worked out at 2640 nM in experiment [1] and 3000 nM in experiment [2].

For the molecule `Cc1ncnc2c1ccn2[C@@H]1O[C@H]([C@H](O)c2ccc(F)cc2)[C@@H](O)[C@H]1O` [Example 38, (2R,3S,4R,5R)-2-((R)-(4-fluorophenyl)(hydroxy)methyl)-5-(4-methyl-7H-pyrrolo[2,3-d]pyrimidin-7-yl)tetrahydrofuran-3,4-diol], the values for the IC50 in experiment [1] and in experiment [2] were 5 nM and 42 nM, respectively.

Take `Cc1ncnc2c1ccn2[C@@H]1O[C@H]([C@@H](O)c2ccc(F)cc2)[C@@H](O)[C@H]1O` [Example 39, (2R,3S,4R,5R)-2-((S)-(4-fluorophenyl)(hydroxy)methyl)-5-(4-methyl-7H-pyrrolo[2,3-d]pyrimidin-7-yl)tetrahydrofuran-3,4-diol]: the figures for the IC50 in experiment [1] and in experiment [2] were 1550 nM and 10500 nM, respectively.

`CC[C@@H](O)[C@H]1O[C@@H](n2ccc3c(C)ncnc32)[C@H](O)[C@@H]1O` [Example 40, (2R,3S,4R,5R)-2-((R)-1-hydroxypropyl)-5-(4-methyl-7H-pyrrolo[2,3-d]pyrimidin-7-yl)tetrahydrofuran-3,4-diol]: the IC50 in experiment [1] turned out to be 114 nM; in experiment [2] it was 2700 nM.

Turning to `Cc1ncnc2c1ccn2[C@@H]1O[C@H]([C@@H](C)O)[C@@H](O)[C@H]1O` [Example 44, (2R,3S,4R,5R)-2-((R)-1-hydroxyethyl)-5-(4-methyl-7H-pyrrolo[2,3-d]pyrimidin-7-yl)tetrahydrofuran-3,4-diol], the IC50 in experiment [1] stood at 52 nM; in experiment [2], 3400 nM.

Take `Nc1ncnc2c1c(F)cn2[C@@H]1O[C@H]([C@H](O)c2ccc(F)c(F)c2)[C@@H](O)[C@H]1O` [Example 60, (2R,3R,4S,5R)-2-(4-amino-5-fluoro-7H-pyrrolo[2,3-d]pyrimidin-7-yl)-5-((R)-(3,4-difluorophenyl)(hydroxy)methyl)tetrahydrofuran-3,4-diol]: the concentration for half-maximal inhibition (IC50) in experiment [1] amounted to 2 nM; in experiment [2] it was 10 nM.

Consider `Nc1ncnc2c1c(F)cn2[C@@H]1O[C@H]([C@H](O)c2ccc(F)cc2)[C@@H](O)[C@H]1O` [Example 61, (2R,3R,4S,5R)-2-(4-amino-5-fluoro-7H-pyrrolo[2,3-d]pyrimidin-7-yl)-5-((R)-(4-fluorophenyl)(hydroxy)methyl)tetrahydrofuran-3,4-diol], for which the results for the IC50 in experiment [1] and in experiment [2] were 3 nM and 14 nM, respectively.

As for `CC[C@@H](O)[C@H]1O[C@@H](n2ccc3c(C)nc(N)nc32)[C@H](O)[C@@H]1O` [Example 62, (2R,3R,4S,5R)-2-(2-amino-4-methyl-7H-pyrrolo[2,3-d]pyrimidin-7-yl)-5-((R)-1-hydroxypropyl)tetrahydrofuran-3,4-diol], the results for the IC50 in experiment [1] and in experiment [2] were 52 nM and 2300 nM, respectively.

As to `CCC[C@@H](O)[C@H]1O[C@@H](n2ccc3c(C)nc(N)nc32)[C@H](O)[C@@H]1O` [Example 63, (2R,3R,4S,5R)-2-(2-amino-4-methyl-7H-pyrrolo[2,3-d]pyrimidin-7-yl)-5-((R)-1-hydroxybutyl)tetrahydrofuran-3,4-diol], the IC50 came out at 38 nM in experiment [1] and 3400 nM in experiment [2].

For the molecule `Cc1nc(N)nc2c1ccn2[C@@H]1O[C@H]([C@H](O)c2ccc(F)cc2)[C@@H](O)[C@H]1O` [Example 64, (2R,3R,4S,5R)-2-(2-amino-4-methyl-7H-pyrrolo[2,3-d]pyrimidin-7-yl)-5-((R)-(4-fluorophenyl)(hydroxy)methyl)tetrahydrofuran-3,4-diol], the values for the IC50 in experiment [1] and in experiment [2] were 5 nM and 18 nM, respectively.

With `Nc1ncnc2c1c(F)cn2[C@@H]1O[C@H]([C@H](O)c2ccc(F)cn2)[C@@H](O)[C@H]1O` [Example 83, (2R,3R,4S,5R)-2-(4-amino-5-fluoro-7H-pyrrolo[2,3-d]pyrimidin-7-yl)-5-((R)-(5-fluoropyridin-2-yl)(hydroxy)methyl)tetrahydrofuran-3,4-diol], the IC50 in experiment [1] was 13 nM; in experiment [2], 323 nM.

As for `Nc1ncnc2c1ccn2[C@@H]1O[C@H]([C@H](O)c2ccc(F)c(F)c2)[C@@H](O)[C@H]1O` [Example 85, (2R,3R,4S,5R)-2-(4-amino-7H-pyrrolo[2,3-d]pyrimidin-7-yl)-5-((R)-(3,4-difluorophenyl)(hydroxy)methyl)tetrahydrofuran-3,4-diol], the figures for the IC50 in experiment [1] and in experiment [2] were 1 nM and 6 nM, respectively.

As for `Nc1ncnc2c1ccn2[C@@H]1O[C@H]([C@H](O)c2ccc(F)cc2)[C@@H](O)[C@H]1O` [Example 86, (2R,3R,4S,5R)-2-(4-amino-7H-pyrrolo[2,3-d]pyrimidin-7-yl)-5-((R)-(4-fluorophenyl)(hydroxy)methyl)tetrahydrofuran-3,4-diol], the half-maximal inhibitory concentration (IC50) in experiment [1] is 2 nM; in experiment [2], 9 nM.

Source of the values: US10428104B2, “Substituted nucleoside derivatives useful as anticancer agents” (Pfizer Inc., priority 2015, dated 2019).
